Results reported in patent US9539260B2, “Dihydro-benzo-oxazine and dihydro-pyrido-oxazine derivatives” (Novartis AG, priority 2012, dated 2017).

Tests used:
[1] = molecular target: myristoylated catalytic subunit of human PI3K delta in Rat-1 cells (Homo sapiens (Human), UniProt O00329); test: PI3K-mediated Akt 1/2 (S473) phosphorylation in Rat-1 cells, PI3K delta; format: cell-based; conditions: Rat-1 cells overexpressing myristoylated human PI3K delta; p-Akt (S473) AlphaScreen SureFire; read-out: Cell PI3Kδ/ IC50
Experimental: 2.1 Phosphoinositide-3 Kinase (PI3K)-Mediated Akt 1/2 (S473) Phosphorylation in Rat-1 Cells
Rat-1 cells stably overexpressing a myristoylated form of the catalytic subunit of human phosphoinositide-3 kinase (PI3K) alpha, beta or delta were plated in 384-well plates at a density of 7500 (PI3K alpha), 6200 (PI3K beta), or 4000 (PI3K delta) cells in 30 ul complete growth medium (Dulbecco's modified Eagle's medium (DMEM high glucose) supplemented with 10% (v/v) fetal bovine serum, 1% (v/v) MEM non essential amino acids, 10 mM HEPES, 2 mM L-glutamine, 10 μg/mL puromycin and 1% (v/v) Penicillin/Streptomycin) and were incubated at […]/5% CO2/95% humidity for 24 h. Compounds were diluted in 384-well compound plates to obtain 8-point serial dilutions for 40 test compounds in 90% DMSO, as well as 4 reference compounds plus 16 high controls and 16 low (inhibited) controls. Predilution plates were prepared by dispensing pipetting 250 nl of compound solutions into 384-well polypropylen plates using a Hummingwell nanoliter dispensor. Compounds were prediluted by the addition of 49.75 ul complete growth medium. 10 ul of prediluted compound solution were transferred to the cell plate using a 384-well pipettor, resulting in a final DMSO concentration of 0.11%.
Cells were incubated for 1 h at […]/5% CO2/95% humidity. The supernatant was removed, the cells were lysed in 20 ul of lysis buffer for AlphaScreen® SureFire® detection.
For detection of p-AKT(Ser473), the SureFire® p-Akt 1/2 (Ser473) Assay Kit (PerkinElmer, U.S.A) was used. 5 ul of cell lysate was transferred to 384-well low volume Proxiplates for detection using a 384-well pipettor. Addition of AlphaScreen® SureFire® reagents was done according to the manufacturer's protocol. First, 5 ul of reaction buffer plus activation buffer mix containing AlphaScreen® acceptor beads was added, the plate was sealed, and incubated on a plate shaker for 2 hours at room temperature. Second, 2 ul of dilution buffer containing AlphaScreen® donor beads was added, and the plate was incubated on plate shaker as above for a further 2 hours. The plate was read on an AlphaScreen® compatible plate reader, using standard AlphaScreen® settings.

[2] = molecular target: PI3K delta (Homo sapiens (Human), UniProt O00329); test: Enzymatic PI3K delta isoform inhibition (lipid kinase activity, Kinase-Glo luminescence); format: biochemical; conditions: Enzymatic assay
In short: (§1)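 ATP-depletion format: 10 nM PI3K with 5 μg/mL phosphatidylinositol and 2 μM ATP, run to ~50% ATP consumption, then Kinase-Glo added and remaining ATP read by luminescence after 5 min. IC50 from 4-parameter logistic fit, typically over 8 concentrations 10–0.003 μM.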

[3] = molecular target: PI3K alpha (Homo sapiens (Human), UniProt P42336); test: Enzymatic PI3K alpha isoform inhibition (lipid kinase activity, Kinase-Glo luminescence); format: biochemical; conditions: Enzymatic assay
In short: as §1

Sequence of PI3K delta (O00329 other isoform, or with tags, fused parts or gaps linker GGGGGG): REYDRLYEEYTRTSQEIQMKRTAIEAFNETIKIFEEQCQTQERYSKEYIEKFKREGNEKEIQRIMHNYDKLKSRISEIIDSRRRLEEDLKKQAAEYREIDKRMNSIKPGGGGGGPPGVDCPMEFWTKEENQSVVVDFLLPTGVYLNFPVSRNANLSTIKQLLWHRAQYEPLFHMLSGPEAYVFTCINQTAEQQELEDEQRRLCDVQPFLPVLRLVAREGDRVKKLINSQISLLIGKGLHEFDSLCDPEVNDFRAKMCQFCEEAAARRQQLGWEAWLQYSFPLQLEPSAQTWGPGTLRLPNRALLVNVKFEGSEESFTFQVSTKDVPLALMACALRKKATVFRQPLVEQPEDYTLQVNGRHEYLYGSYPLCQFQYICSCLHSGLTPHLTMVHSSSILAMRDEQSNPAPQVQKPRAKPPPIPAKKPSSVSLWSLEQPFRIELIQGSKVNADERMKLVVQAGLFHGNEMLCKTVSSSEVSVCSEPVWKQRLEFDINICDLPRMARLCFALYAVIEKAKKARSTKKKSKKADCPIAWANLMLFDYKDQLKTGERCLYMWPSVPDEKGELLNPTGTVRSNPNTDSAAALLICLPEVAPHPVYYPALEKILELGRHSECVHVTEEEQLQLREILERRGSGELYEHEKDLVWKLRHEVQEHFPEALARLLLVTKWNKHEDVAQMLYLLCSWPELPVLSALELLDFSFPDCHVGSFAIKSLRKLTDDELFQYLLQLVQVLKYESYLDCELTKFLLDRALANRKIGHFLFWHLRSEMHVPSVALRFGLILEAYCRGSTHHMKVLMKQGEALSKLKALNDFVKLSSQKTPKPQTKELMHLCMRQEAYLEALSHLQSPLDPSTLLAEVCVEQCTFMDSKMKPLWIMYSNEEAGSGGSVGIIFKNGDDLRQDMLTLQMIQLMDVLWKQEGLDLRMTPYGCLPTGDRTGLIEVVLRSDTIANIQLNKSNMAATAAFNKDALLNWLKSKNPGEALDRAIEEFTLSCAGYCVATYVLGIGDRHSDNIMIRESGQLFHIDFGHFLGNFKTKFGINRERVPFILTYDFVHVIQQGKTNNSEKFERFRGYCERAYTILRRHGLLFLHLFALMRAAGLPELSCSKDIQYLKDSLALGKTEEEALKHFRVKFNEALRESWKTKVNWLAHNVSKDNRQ
Sequence of PI3K alpha (P42336 other isoform, or with tags, fused parts or gaps): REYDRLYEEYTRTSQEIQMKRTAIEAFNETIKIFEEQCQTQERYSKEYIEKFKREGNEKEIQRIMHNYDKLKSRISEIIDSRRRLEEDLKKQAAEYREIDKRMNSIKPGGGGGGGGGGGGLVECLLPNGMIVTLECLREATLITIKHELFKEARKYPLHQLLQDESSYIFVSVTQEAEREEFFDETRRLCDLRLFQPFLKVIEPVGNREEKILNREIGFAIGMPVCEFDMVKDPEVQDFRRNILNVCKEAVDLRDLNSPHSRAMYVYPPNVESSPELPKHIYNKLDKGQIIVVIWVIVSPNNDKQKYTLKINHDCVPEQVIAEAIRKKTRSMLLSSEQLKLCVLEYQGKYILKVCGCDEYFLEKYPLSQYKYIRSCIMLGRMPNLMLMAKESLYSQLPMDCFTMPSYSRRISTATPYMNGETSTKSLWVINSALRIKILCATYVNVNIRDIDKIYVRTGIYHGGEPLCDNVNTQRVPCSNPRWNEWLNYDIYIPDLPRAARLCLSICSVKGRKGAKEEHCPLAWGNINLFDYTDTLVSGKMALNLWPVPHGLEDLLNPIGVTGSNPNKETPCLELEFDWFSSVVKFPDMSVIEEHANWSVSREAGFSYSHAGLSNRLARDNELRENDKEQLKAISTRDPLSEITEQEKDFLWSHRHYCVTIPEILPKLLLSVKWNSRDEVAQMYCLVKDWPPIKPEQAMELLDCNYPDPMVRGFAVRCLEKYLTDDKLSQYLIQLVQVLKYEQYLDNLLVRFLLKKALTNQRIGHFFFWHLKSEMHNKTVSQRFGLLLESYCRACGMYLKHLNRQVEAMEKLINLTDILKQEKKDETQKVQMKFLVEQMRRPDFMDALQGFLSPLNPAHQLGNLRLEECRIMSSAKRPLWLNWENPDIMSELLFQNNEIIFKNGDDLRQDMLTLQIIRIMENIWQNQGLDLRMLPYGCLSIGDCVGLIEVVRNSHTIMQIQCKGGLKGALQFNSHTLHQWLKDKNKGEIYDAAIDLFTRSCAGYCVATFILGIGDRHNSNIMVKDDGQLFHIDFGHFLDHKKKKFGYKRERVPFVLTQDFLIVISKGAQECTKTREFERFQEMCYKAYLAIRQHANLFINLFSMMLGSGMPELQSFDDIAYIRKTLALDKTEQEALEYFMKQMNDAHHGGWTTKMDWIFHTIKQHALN
Sequence of myristoylated catalytic subunit of human PI3K delta in Rat-1 cells (O00329 whole entry): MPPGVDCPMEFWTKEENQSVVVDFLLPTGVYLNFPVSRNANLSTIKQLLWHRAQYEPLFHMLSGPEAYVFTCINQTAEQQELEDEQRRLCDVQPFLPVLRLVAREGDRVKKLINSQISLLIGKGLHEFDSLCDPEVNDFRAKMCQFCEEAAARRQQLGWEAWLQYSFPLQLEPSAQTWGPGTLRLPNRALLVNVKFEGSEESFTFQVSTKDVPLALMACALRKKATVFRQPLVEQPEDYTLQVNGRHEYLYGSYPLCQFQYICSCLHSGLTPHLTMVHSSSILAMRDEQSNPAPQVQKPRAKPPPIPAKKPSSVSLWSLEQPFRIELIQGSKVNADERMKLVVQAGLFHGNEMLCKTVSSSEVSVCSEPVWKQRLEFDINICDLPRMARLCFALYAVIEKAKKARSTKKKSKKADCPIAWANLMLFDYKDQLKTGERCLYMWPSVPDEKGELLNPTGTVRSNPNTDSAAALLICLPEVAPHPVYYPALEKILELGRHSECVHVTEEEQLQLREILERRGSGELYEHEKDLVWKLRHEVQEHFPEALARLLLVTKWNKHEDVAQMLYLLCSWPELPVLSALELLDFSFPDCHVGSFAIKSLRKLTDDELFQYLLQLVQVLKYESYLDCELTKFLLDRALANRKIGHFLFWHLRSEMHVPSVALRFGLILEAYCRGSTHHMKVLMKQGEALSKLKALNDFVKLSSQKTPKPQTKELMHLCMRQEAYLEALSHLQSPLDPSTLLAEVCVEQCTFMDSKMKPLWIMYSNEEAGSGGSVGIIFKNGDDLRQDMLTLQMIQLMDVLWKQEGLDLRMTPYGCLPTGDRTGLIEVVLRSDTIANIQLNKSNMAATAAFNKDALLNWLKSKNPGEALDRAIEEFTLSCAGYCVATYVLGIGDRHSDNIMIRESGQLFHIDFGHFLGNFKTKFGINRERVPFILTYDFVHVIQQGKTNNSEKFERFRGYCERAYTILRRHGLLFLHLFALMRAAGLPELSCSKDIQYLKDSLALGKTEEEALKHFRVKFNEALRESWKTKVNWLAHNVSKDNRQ

How did the IC50 [1] turn out when COc1ncc(N2CCOc3cnc(O[C@H]4CCN(C(=O)c5cn(C)cn5)C4)cc32)cc1F [Example F3, {(S)-3-[1-(5-Fluoro-6-methoxy-pyridin-3-yl)-2,3-dihydro-1H-pyrido[3,4-b][1,4]oxazin-7-yloxy]-pyrrolidin-1-yl}-(1-methyl-1H-imidazol-4-yl)-methanone] was run?
Its IC50 is 50 nM.

What about the IC50 [2] of the same compound?
Its IC50 is 6 nM.

What about the IC50 [3] of the same compound?
The IC50 was 337 nM.

With COc1cc(N2CCOc3ccc(O[C@H]4CCN(C(=O)C5CCOCC5)C4)cc32)cnc1Cl [Example B54, {(S)-3-[4-(6-Chloro-5-methoxy-pyridin-3-yl)-3,4-dihydro-2H-benzo[1,4]oxazin-6-yloxy]-pyrrolidin-1-yl}-(tetrahydro-pyran-4-yl)-methanone] as the compound, how does the IC50 [2] read?
Its IC50 is 11 nM.

What about the IC50 [3] of the same compound?
The IC50 was 756 nM.

What does the source list for CCC(=O)N1CC[C@H](Oc2ccc3c(c2)N(c2cncc(S(=O)(=O)N4CCOCC4)c2)CCO3)C1 [Example A26, 1-((S)-3-{4-[5-(Morpholine-4-sulfonyl)-pyridin-3-yl]-3,4-dihydro-2H-benzo[1,4]oxazin-6-yloxy}-pyrrolidin-1-yl)-propan-1-one]?
IC50 [2]: 22 nM; IC50 [3]: 152 nM

For COc1cc(N2CCOc3ccc(O[C@H]4CCN(C(=O)CCO)C4)cc32)cnc1Cl [Example B57, 1-{(S)-3-[4-(6-Chloro-5-methoxy-pyridin-3-yl)-3,4-dihydro-2H-benzo[1,4]oxazin-6-yloxy]-pyrrolidin-1-yl}-3-hydroxy-propan-1-one], which IC50 [2] is on record?
The IC50 was 95 nM.

What about the IC50 [3] of the same compound?
Its IC50 is 2270 nM.

Which IC50 [2] does the source give for COc1ncc(N2CCOc3ccc(O[C@H]4CCN(C(=O)c5cnn(C)c5)C4)cc32)cc1C [Example B20, {(S)-3-[4-(6-Methoxy-5-methyl-pyridin-3-yl)-3,4-dihydro-2H-benzo[1,4]oxazin-6-yloxy]-pyrrolidin-1-yl}-(1-methyl-1H-pyrazol-4-yl)-methanone] here?
The IC50 was 47 nM.

What about the IC50 [3] of the same compound?
Its IC50 is 339 nM.

How did the IC50 [2] turn out when COc1cc(N2CCOc3ccc(O[C@H]4CCN(C(=O)C5CCS(=O)(=O)CC5)C4)cc32)cnc1Cl [Example B56, {(S)-3-[4-(6-Chloro-5-methoxy-pyridin-3-yl)-3,4-dihydro-2H-benzo[1,4]oxazin-6-yloxy]-pyrrolidin-1-yl}-(1,1-dioxo-hexahydro-1lambda*6*-thiopyran-4-yl)-methanone] was run?
The IC50 was 23 nM.

And the IC50 [3]?
Its IC50 is 1420 nM.

Which results are given for CCC(=O)N1CC[C@H](Oc2ccc3c(c2)N(c2ccc(OC)c(C(F)(F)F)c2)CCO3)C1 [Example A41, 1-{(S)-3-[4-(4-Methoxy-3-trifluoromethyl-phenyl)-3,4-dihydro-2H-benzo[1,4]oxazin-6-yloxy]-pyrrolidin-1-yl}-propan-1-one]?
IC50 [2]: 296 nM; IC50 [3]: 2790 nM

Which results are given for CCC(=O)N1CC[C@H](Oc2ccc3c(c2)N(c2ccc(C)c(C#N)c2)CCO3)C1 [Example A40, 2-Methyl-5-[6-((S)-1-propionyl-pyrrolidin-3-yloxy)-2,3-dihydro-benzo[1,4]oxazin-4-yl]-benzonitrile]?
IC50 [2]: 462 nM; IC50 [3]: 5360 nM

How did the IC50 [2] turn out when COc1ncc(N2CCOc3ccc(O[C@H]4CCN(C(=O)c5ccno5)C4)cc32)cc1C#N [Example C9, 5-{6-[(S)-1-(Isoxazole-5-carbonyl)-pyrrolidin-3-yloxy]-2,3-dihydro-benzo[1,4]oxazin-4-yl}-2-methoxy-nicotinonitrile] was run?
Its IC50 is 6 nM.

And the IC50 [3]?
The IC50 was 185 nM.

Which results are given for CCC(=O)N1CC[C@H](Oc2ccc3c(c2)N(c2ccc(C)c(S(=O)(=O)N4CCCCC4)c2)CCO3)C1 [Example A24, 1-((S)-3-{4-[4-Methyl-3-(piperidine-1-sulfonyl)-phenyl]-3,4-dihydro-2H-benzo[1,4]oxazin-6-yloxy}-pyrrolidin-1-yl)-propan-1-one]?
IC50 [2]: 317 nM; IC50 [3]: 6880 nM

Which results are given for CCC(=O)N1CC[C@H](Oc2ccc3c(c2)N(c2ccc(OC)c(OC)c2)CCO3)C1 [Example A35, 1-{(S)-3-[4-(3,4-Dimethoxy-phenyl)-3,4-dihydro-2H-benzo[1,4]oxazin-6-yloxy]-pyrrolidin-1-yl}-propan-1-one]?
IC50 [2]: 1420 nM; IC50 [3]: 5590 nM

Which IC50 [2] does the source give for Cc1cc(N2CCOc3ccc(O[C@H]4CCN(C(=O)CCO)C4)cc32)cnc1Cl [Example B61, 1-{(S)-3-[4-(6-Chloro-5-methyl-pyridin-3-yl)-3,4-dihydro-2H-benzo[1,4]oxazin-6-yloxy]-pyrrolidin-1-yl}-3-hydroxy-propan-1-one] here?
The IC50 was 37 nM.

What about the IC50 [3] of the same compound?
Its IC50 is 732 nM.

What does the source list for COc1ncc(N2CCOc3ccc(O[C@H]4CCN(C(=O)[C@H]5CCNC5)C4)cc32)cc1C#N [Example D39, 2-methoxy-5-{6-[(S)-1-((S)-pyrrolidine-3-carbonyl)-pyrrolidin-3-yloxy]-2,3-dihydro-benzo[1,4]oxazin-4-yl}-nicotinonitrile]?
IC50 [2]: 36 nM; IC50 [3]: 987 nM

Which results are given for COc1cncc(N2CCOc3ccc(O[C@H]4CCN(C(=O)C5CCOCC5)C4)cc32)c1 [Example A33, {(S)-3-[4-(5-Methoxy-pyridin-3-yl)-3,4-dihydro-2H-benzo[1,4]oxazin-6-yloxy]-pyrrolidin-1-yl}-(tetrahydro-pyran-4-yl)-methanone]?
IC50 [2]: 85 nM; IC50 [3]: 1700 nM

Which results are given for CCOc1ncc(N2CCOc3ccc(O[C@H]4CCN(C(=O)C5CCOCC5)C4)cc32)cc1C [Example B2, {(S)-3-[4-(6-Ethoxy-5-methyl-pyridin-3-yl)-3,4dihydro-2H-benzo[1,4]oxazin-6-yloxy]-pyrrolidin-1-yl}-(tetrahydro-pyran-4-yl)-methanone]?
IC50 [2]: 26 nM; IC50 [3]: 1640 nM

Which IC50 [2] does the source give for COc1ncc(N2CCOc3cnc(O[C@H]4CCN(C(=O)c5ncn(C)c5N)C4)cc32)cc1C(F)(F)F [Example G3, (5-Amino-1-methyl-1H-imidazol-4-yl)-{(S)-3-[1-(6-methoxy-5-trifluoromethyl-pyridin-3-yl)-2,3-dihydro-1H-pyrido[3,4-b][1,4]oxazin-7-yloxy]-pyrrolidin-1-yl}-methanone] here?
The IC50 was 56 nM.

And the IC50 [3]?
Its IC50 is 372 nM.

For Cc1cc(N2CCOc3ccc(O[C@H]4CCN(C(=O)C5CCOCC5)C4)c(C)c32)cnc1S(C)(=O)=O [W, {(S)-3-[4-(6-Methanesulfonyl-5-methyl-pyridin-3-yl)-5-methyl-3,4-dihydro-2H-benzo[1,4]oxazin-6-yloxy]-pyrrolidin-1-yl}-(tetrahydro-pyran-4-yl)-methanone], which IC50 [2] is on record?
The IC50 was 56 nM.

And the IC50 [3]?
Its IC50 is 2980 nM.

How did the IC50 [2] turn out when CCOc1ncc(N2CCOc3ccc(O[C@H]4CCN(C(=O)C5CCS(=O)(=O)CC5)C4)cc32)cc1C [Example B17, (1,1-Dioxo-hexahydro-1lambda*6*-thiopyran-4-yl)-{(S)-3-[4-(6-ethoxy-5-methyl-pyridin-3-yl)-3,4-dihydro-2H-benzo[1,4]oxazin-6-yloxy]-pyrrolidin-1-yl}-methanone] was run?
The IC50 was 23 nM.

And the IC50 [3]?
Its IC50 is 2090 nM.

For COc1cc(N2CCOc3ccc(O[C@H]4CCN(C(=O)C5CCS(=O)(=O)CC5)C4)cc32)cnc1OC [Example B47, {(S)-3-[4-(5,6-Dimethoxy-pyridin-3-yl)-3,4-dihydro-2H-benzo[1,4]oxazin-6-yloxy]-pyrrolidin-1-yl}-(1,1-dioxo-hexahydro-1lambda*6*-thiopyran-4-yl)-methanone], which IC50 [2] is on record?
The IC50 was 10.7 nM.

What about the IC50 [3] of the same compound?
Its IC50 is 241 nM.

With CCC(=O)N1CC[C@H](Oc2ccc3c(c2)N(c2cnc(N)c(OC)c2)CCO3)C1 [Example A14, 1-{(S)-3-[4-(6-Amino-5-methoxy-pyridin-3-yl)-3,4-dihydro-2H-benzo[1,4]oxazin-6-yloxy]-pyrrolidin-1-yl}-propan-1-one] as the compound, how does the IC50 [2] read?
Its IC50 is 5400 nM.

What about the IC50 [3] of the same compound?
Its IC50 is greater than 9100 nM.

With CCC(=O)N1CC[C@H](Oc2ccc3c(c2)N(c2cncc(C#N)c2)CCO3)C1 [Example A32, 5-[6-((S)-1-Propionyl-pyrrolidin-3-yloxy)-2,3-dihydro-benzo[1,4]oxazin-4-yl]-nicotinonitrile] as the compound, how does the IC50 [2] read?
Its IC50 is 74 nM.

What about the IC50 [3] of the same compound?
The IC50 was 3200 nM.

With Cc1cc(N2CCOc3ccc(O[C@H]4CCN(C(=O)c5cocn5)C4)cc32)cnc1S(C)(=O)=O [Example B24, {(S)-3-[4-(6-Methanesulfonyl-5-methyl-pyridin-3-yl)-3,4-dihydro-2H-benzo[1,4]oxazin-6-yloxy]-pyrrolidin-1-yl}-oxazol-4-yl-methanone] as the compound, how does the IC50 [2] read?
Its IC50 is 8 nM.

What about the IC50 [3] of the same compound?
The IC50 was 212 nM.
